Reference: US9808419B2, “Medicinal treatment of dermal infectious disorders with norketotifen” (priority 2012, dated 2017)
Where two headings read alike, the source gives them in different places. Marks after values point to notes of the source that are not given here.

How the values were obtained:
[1] = Formation of norketotifen by hepatic demethylation of ketotifen; conditions: human patients, after an oral dose of one milligram ketotifen; calculated
[2] = Solubility in non-aqueous topical formulation solvents; type: physicochemical
Protocol: The hydrophobic ointment was prepared by dissolving norketotifen in propylene glycol. […] Next, glyceryl stearate, cetyl alcohol, and white petrolatum were added to a suitable container and heated to 65-70° C. This heating step melts the surfactants and the petrolatum. Next, norketotifen solution was slowly added and the composition mixed until the solvent was dispersed. Finally, the composition was cooled with mixing to allow the ointment to thicken. If needed, acidity can be adjusted by adding an acid solution or a base solution to obtain the preferred acidity. If needed, viscosity can be adjusted with a viscosity-modifying agent to obtain the preferred viscosity.

Helicobacter pylori = experiment: Antimicrobial test; type: cell-based
mice = conditions: for Sedated animals: mice, 60 min before physostigmine
Protocol: Mice administered a sedating drug prior to the physostigmine injection are protected from the stress and survive. In the present study, test compounds were given orally 60 minutes prior to physostigmine injection. The number of surviving (sedated) mice was counted 30 minutes after injection of the physostigmine dose.

[3] = tested on: croton oil inflammatory response; experiment: Modified croton oil ear inflammation in mice, topical cream; type: in vivo; conditions: cream containing 1.0 percent (w/w)
Protocol: In order to investigate the effects of topical administration of the test compounds in dermal inflammation, a modified croton oil model was used. […] The cream was then removed and a solution of 1% croton oil in 20 μl acetone was applied to both ears. […] Cream was wiped from the ears and ears were removed and weighed. […] All results represent mean ear weights (±S.E.M.) from 8 ears.

Candida albicans = experiment: Antimicrobial test; type: cell-based
Description: (§1) Several studies have been performed to evaluate possible antimicrobial activities of norketotifen. Shown here are the results from a standard microbiological test, where the results are expressed as MIC (Minimal Inhibitory Concentration) of the test article against selected exemplary dermal bacteria (such as for example Staphylococcus aureus) and dermal fungi (such as for example Malassezia sp) that are commonly found in human with dermal diseases. […] All the MIC-tests shown in Table 10 were performed in duplicates, using 10 concentrations of the test articles. […] The test culture tubes/plates were incubated in temperatures and durations appropriate for each microorganism (S. aureus: 36° C. and 24 hours; M. globosa: 30° C. and 24 hours).

Malassezia pachydermatis = experiment: Antimicrobial test; type: cell-based
Description: as §1

[4] = tested on: human leukocytes (buffy coat); experiment: Inhibition of A23187-stimulated histamine release from human leukocytes; type: cell-based
Protocol: In these studies, histamine was the marker compound for inflammatory mediators that are released from mast cells and other pro-inflammatory cells in patients with atopic inflammatory diseases. The inhibition of stimulated histamine release from human leukocytes (buffy coat) by test articles was studied. Leukocytes were obtained from healthy volunteers and histamine release was induced by incubation (20 min/37° C.) with the calcium ionophore A23187 (5 μM) in the presence or absence of a test article. Histamine was analyzed by enzyme-immune assays, using commercially available kits and a microplate reader (MRX, Dynatech). The test articles were evaluated, in duplicate, at five concentrations.

histamine wheal response = experiment: Histamine-induced wheal (Evans blue) in rats, oral pretreatment; type: in vivo; conditions: rat; for Saline wheal area: histamine vehicle injection
Protocol: Male rats (150-200 g) were fasted overnight and twelve hours after dorsal depilation, the animals were orally pretreated with the test compound(s). Four dorsal test areas were marked with permanent ink, carefully avoiding the area closest to the spine. […] Two intradermal injections of the vehicle for the histamine solution were also performed. […] Twenty minutes were allowed for the wheal response to fully develop, whereupon the animals were euthanized and the dorsal skin with the intradermal wheals were deflected. The blue spotted areas were measured in square millimeters and the duplicate wheal areas were averaged. […] The inhibition was calculated in percent difference from said baseline values.

[5] = tested on: histamine-induced pruritus; experiment: Histamine-induced pruritus in mice, oral administration; type: in vivo
Protocol: Antipruritic effects were tested in vivo in CD-1 female mice aged 10-12 weeks. The hair was clipped over the rostral part of the back at the interscapular level of the mice one day before dosing. Before testing, the mice were placed in individual clear plastic cages for at least one hour for acclimation. After fasting for 1.5 hours, the animals were dosed orally with the test article, dissolved in a vehicle consisting of 1% methylcellulose/water, 10 mL/kg body-weight. Sixty minutes after oral dosing, an intradermal injection of histamine (300 nmol in 20 μl phosphate buffered saline (PBS), pH 7.4) was administered into the clipped area. Immediately after the histamine injection, the bouts of scratches were counted for 40 minutes. Scratching induced by the histamine vehicle PBS served as control.
Norketotifen was tested in escalating doses. In addition, a supramaximal dose of 100 mg/kg of norketotifen was tested. The reference compounds JNJ7777120, desloratadine and oclacitinib were dosed orally at 20 mg/kg. The vehicle for the reference compound JNJ7777120 was 20% hydroxypropyl-β-cyclodextrin in water. […]. The numbers of pruritic bouts for Norketotifen, DES and OCLA are expressed in percent of the same Vehicle (100% corresponds to 92 pruritic bouts). […] Scratches induced by the histamine-free vehicle PBS (not shown in Table 5) served as control (6±3 bouts of scratching; N=8)
This test used histamine to induce pruritus. […] The histamine inhibitors are “inverse agonists” at both receptor types.

[6] = Acute toxicity in rats, Up-and-Down Procedure; conditions: both sexes, Sprague-Dawley, in vivo, rat, hydrogen fumarate salts, read-out: Acute toxicity (estimated LD50)
Protocol: Acute toxicological studies were performed in rats (Sprague-Dawley; M and F; 200-250 grams). The animal-sparing Up-and-Down Procedure, recommended by FDA and OECD, was used. Both oral and intravenous toxicity tests were performed.
Both compounds were administered as hydrogen fumarate salts.

[7] = tested on: histamine-induced pruritus; experiment: Histamine-induced pruritus in mice, topical cream; type: in vivo; conditions: single topical application of 1.0 percent cream
Protocol: Antipruritic effects were tested in vivo in CD-1 female mice aged 10-12 weeks, according to methods known in the art. The hair was clipped over the rostral part of the back at the interscapular level of the mice one day before dosing. Before testing, the mice were placed in individual clear plastic cages for at least one hour for acclimation. […] Lanolin was weighed and liquified by submerging the vessel containing lanolin in hot water. While the lanolin was liquid, it was rapidly nixed (by vortexing) with the 2.5% norketotifen solution in ethanol, resulting in a 1.0 percent solution. […] A cream containing 60% lanolin/40% ethanol served as control.

Staphylococcus aureus = experiment: Antimicrobial MIC test; type: cell-based; conditions: MRSA or non-resistant S. aureus; 36° C. and 24 hours
Description: as §1

Malassezia globosa = experiment: Antimicrobial MIC test; type: cell-based; conditions: 30° C. and 24 hours
Description: as §1

[8] = oral 20 mg/kg, vehicle 1% methylcellulose/water

O=C1Cc2ccccc2C(=C2CCNCC2)c2ccsc21 (racemic) [Norketotifen]
Norketotifen formed in the liver [1]: up to 0.5 mg | Solubility ([2]; formulation G1009, mixture of two polyethylene glycols): about 1.0% | Solubility ([2]; in propylene glycol): about 1.0% | Antimicrobial activity (Helicobacter pylori): potent antimicrobial activities | Sedated animals (mice; oral 83 mg/kg): 3/10 | Sedated animals (mice; oral 100 mg/kg): 3/10 | Sedated animals (mice; oral 150 mg/kg): 3/10 | Sedated animals (mice; oral 180 mg/kg): 6/10 | Sedative activity in mice (mice; mouse, in vivo): expressed sedative activity | Inhibition of croton oil inflammation [3]: completely inhibited | Antimicrobial activity (Candida albicans): potent antimicrobial activities | Antimicrobial activity (Malassezia pachydermatis): potent antimicrobial activities | Potency as inhibitor of histamine release relative to ketotifen [4]: approximately 10 times | Saline wheal area (histamine wheal response; oral 1.0 mg/kg): 22 ± 1 mm^2 | Histamine wheal area (histamine wheal response; oral 10 mg/kg, 60 min before intradermal histamine): 39 ± 2 mm^2 | Saline wheal area (histamine wheal response; oral 10 mg/kg): 22 ± 1 mm^2 | Saline wheal area (histamine wheal response; oral 50 mg/kg): 12 ± 1 mm^2 | Bouts/40 min Mean ± SEM ([5]; oral 1 mg/kg): 84.7 ± 11.6 | Bouts as % of Vehicle Controls ([5]; oral 1 mg/kg, 100% = 92 bouts): 92% | Bouts/40 min Mean ± SEM ([5]; oral 3 mg/kg): 34.1 ± 9.6 | Bouts as % of Vehicle Controls ([5]; oral 3 mg/kg, 100% = 92 bouts): 37** % | Bouts/40 min Mean ± SEM ([5]; oral 10 mg/kg): 17.8 ± 3.1 | Bouts as % of Vehicle Controls ([5]; oral 10 mg/kg, 100% = 92 bouts): 19** % | Bouts/40 min Mean ± SEM ([5]; oral 100 mg/kg): 8.3 ± 2.8 | Bouts as % of Vehicle Controls ([5]; oral 100 mg/kg, 100% = 92 bouts): 9*** % | Inhibition of histamine-induced pruritus ([5]; oral supramaximal dose 100 mg/kg): complete inhibition | LD50 ([6]; intravenous): 10 to 15 mg/kg | LD50 ([6]; oral): 1500 to 2000 mg/kg | Reduction of histamine-induced pruritus versus Vehicle Control [7]: 58%

Clc1ccc2c(c1)CCc1cccnc1C2=C1CCNCC1 [DESLORATADINE, reference compound]
Sedated animals (mice; oral 150 mg/kg): 0/10 | Bouts as % of Vehicle Controls ([5]; oral 20 mg/kg, 100% = 92 bouts): 122% | Bouts/40 min Mean ± SEM [5, 8]: 112.0 ± 14.5

CN(C)CCOC(c1ccccc1)c1ccccc1 [DIPHENHYDRAMINE]
Sedated animals (mice; oral 50 mg/kg): 5/10 | Sedated animals (mice; oral 100 mg/kg): 8/10

OCCOCCN1CCN(C(c2ccccc2)c2ccc(Cl)cc2)CC1 (stereo not drawn) [HYDROXYZINE]
Sedated animals (mice; oral 100 mg/kg): 9/10

CN1CCN(C(=O)c2cc3cc(Cl)ccc3[nH]2)CC1 [J&J7777120, reference compound]
Bouts/40 min Mean ± SEM ([5]; oral 20 mg/kg, vehicle 20% hydroxypropyl-β-cyclodextrin): 63.6 ± 11.7 | Bouts as % of Vehicle Controls ([5]; oral 20 mg/kg, versus vehicle for JNJ7777120 (112 bouts)): 57* %

CN1CCC(=C2c3ccccc3CC(=O)c3sccc32)CC1 [Ketotifen, 4-(1-methyl-4-piperidyline)-4H-benzo(4,5)-cyclohepta-(1,2-b) thiophene-10-one]
Sedated animals (mice; oral 25 mg/kg): 5/10 | Sedated animals (mice; oral 50 mg/kg): 8/10 | Sedated animals (mice; oral 100 mg/kg): 10/10 | LD50 ([6]; intravenous): 5 to 10 mg/kg | LD50 ([6]; oral): < 300 mg/kg

CCOC(=O)N1CCC(=C2c3ccc(Cl)cc3CCc3cccnc32)CC1 [LORATADINE]
Sedated animals (mice; oral 150 mg/kg): 1/10

CNS(=O)(=O)C[C@H]1CC[C@H](N(C)c2ncnc3[nH]ccc23)CC1 [Oclacitinib, reference compound]
Bouts as % of Vehicle Controls ([5]; oral 20 mg/kg, 100% = 92 bouts): 55* % | Bouts/40 min Mean ± SEM [5, 8]: 50.9 ± 18.7

COc1ccc(CN(CCN(C)C)c2ccccn2)cc1 [PYRILAMINE]
Sedated animals (mice; oral 100 mg/kg): 8/10

O=C1Cc2ccccc2C(=C2CCNCC2)c2ccsc21 [R-NORKETOTIFEN]
Sedated animals (mice; oral 100 mg/kg, 100 mg/kg): 3/10 | Sedated animals (mice; oral 150 mg/kg, 150 mg/kg): 3/10

O=C(O)/C=C/C(=O)O.O=C1Cc2ccccc2C(=C2CCNCC2)c2ccsc21 [R-norketotifen HF]
S. aureus MIC (Staphylococcus aureus): 1000 µg/mL | M. globosa MIC (Malassezia globosa): 500 µg/mL

O=C(O)/C=C/C(=O)O.O=C1Cc2ccccc2C(=C2CCNCC2)c2ccsc21 [RS-norketotifen HF]
S. aureus MIC (Staphylococcus aureus): 500 µg/mL | M. globosa MIC (Malassezia globosa): 250 µg/mL

O=C1Cc2ccccc2C(=C2CCNCC2)c2ccsc21 [S-NORKETOTIFEN]
Sedated animals (mice; oral 100 mg/kg, 100 mg/kg): 0/10 | Sedated animals (mice; oral 150 mg/kg, 150 mg/kg): 0/10

O=C(O)/C=C/C(=O)O.O=C1Cc2ccccc2C(=C2CCNCC2)c2ccsc21 [S-norketotifen HF]
S. aureus MIC (Staphylococcus aureus): 500 µg/mL | M. globosa MIC (Malassezia globosa): 250 µg/mL

CC(C)(C)c1ccc(C(O)CCCN2CCC(C(O)(c3ccccc3)c3ccccc3)CC2)cc1 (stereo not drawn) [TERFENADINE]
Sedated animals (mice; oral 150 mg/kg): 0/10
